One test has as its target CDK1/cyclin B. Kind of test: CDK1/cyclin B kinase assay (histone H1, P81 phosphocellulose). To be noted: 15 μM ATP; cell '− (x)' = no inhibitory activity detected, x = highest concentration tested. It is filed as biochemical, starfish (Marthasterias glacialis). As for the experimental part: ATP (3,000 Ci/mmol; 1 mCi/ml) in a final volume of 30 μl. […] The wet filters were counted in the presence of 1 ml ACS (Amersham) scintillation fluid.

For another test, the target named is GSK-3α/ß. Briefly: GSK-3α/β kinase assay (GS-1 substrate). It is filed as biochemical, porcine. To be noted: 15 μM ATP; cell '− (x)' = no inhibitory activity detected, x = highest concentration tested. From the text: GSK-3 α/β was purified from porcine brain by affinity chromatography on immobilized axin [39].
For another test, the target named is PIM 1 (Homo sapiens, UniProt P11309). Kind of test: PIM1 kinase assay (histone H1). To be noted: 15 μM ATP; cell '− (x)' = no inhibitory activity detected, x = highest concentration tested; read-out: IC50 PIM 1. It is filed as biochemical.
PIM 1, sequence (P11309 whole entry, species assumed): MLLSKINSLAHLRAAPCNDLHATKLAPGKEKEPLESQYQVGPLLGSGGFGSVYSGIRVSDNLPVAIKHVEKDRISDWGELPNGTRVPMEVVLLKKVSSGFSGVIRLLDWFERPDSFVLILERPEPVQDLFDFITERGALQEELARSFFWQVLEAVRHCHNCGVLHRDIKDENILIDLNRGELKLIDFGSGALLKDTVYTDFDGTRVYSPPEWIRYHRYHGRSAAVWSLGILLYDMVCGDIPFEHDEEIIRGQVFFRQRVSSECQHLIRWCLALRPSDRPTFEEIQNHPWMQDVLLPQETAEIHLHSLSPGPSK
For the next test, the target named is CK1. Kind of test: CK1 kinase assay (CKS peptide). The test is classed as biochemical, porcine. As for the experimental part:
CK1 was purified from porcine brain by affinity chromatography on immobilized axin fragment. The mixture of native CK1 isoforms (essentially CK1δ and CK1ɛ) was assayed in three-fold diluted buffer C, using 25 μM CKS peptide, a CK1 selective substrate (RRKHAAIGpSAYSITA, synthesized by Millegen (Labège, France). Assays were performed for 30 min. at 30°C, as described for GSK-3.

For test [1], the system named is human neuroblastoma SH-SY5Y cells. Briefly: SH-SY5Y cell survival, MTS reduction assay. The test is classed as cell-based. The settings on record: MTS assay, dose-response after 24 h and 48 h exposure, cell '− (x)' = no activity, x = highest concentration tested, read-out: IC50 SH-SY5Y cell survival. On the procedure: We next tested the effects of each lamellarin, at an initial 10 μM concentration, on the survival of the neuroblastoma SH-SY5Y cell line after 48 h exposure (Table 2). Cell survival was estimated by the MTS reduction assay.
SH-SY5Y human neuroblastoma cells were grown in DMEM supplemented with 2mM L-glutamine (Invitrogen, Cergy Pontoise, France), plus antibiotics (penicillin-streptomycin) and a 10% volume of fetal calf serum (FCS) (Invitrogen). Cell viability was determined by means of the MTS (3- (4,5-dimethylthiazol-2-yl)-5- (3-carboxymethoxyphenyl)-2- (4-sulfophenyl)-2H -tetrazolium) reduction method as previously described. Cell death was (also) assayed by LDH release. Lactate dehydrogenase is a stable cytosolic enzyme that is released upon cell lysis. SH-SY5Y cells were also subjected to caspase activity assays. These are based on cleavage of a synthetic caspase substrate DEVD (MP Biomedicals, 199423), a subtrate of active caspase 3/6/7. The assay was carried out according to manufacturer’s instructions.
In general terms: Formazan colour is commonly taken as a measure of viable cells.

The next test concerns HeLa cells. Set-up: method as in PMID 11975488. To be noted: provided for comparison, ref [18]; cited from earlier work.
For a further test, the target named is CDK5/p25 (Homo sapiens, UniProt Q00535). Briefly: CDK5/p25 kinase assay (histone H1).
CDK5/p25, sequence (Q00535 whole entry): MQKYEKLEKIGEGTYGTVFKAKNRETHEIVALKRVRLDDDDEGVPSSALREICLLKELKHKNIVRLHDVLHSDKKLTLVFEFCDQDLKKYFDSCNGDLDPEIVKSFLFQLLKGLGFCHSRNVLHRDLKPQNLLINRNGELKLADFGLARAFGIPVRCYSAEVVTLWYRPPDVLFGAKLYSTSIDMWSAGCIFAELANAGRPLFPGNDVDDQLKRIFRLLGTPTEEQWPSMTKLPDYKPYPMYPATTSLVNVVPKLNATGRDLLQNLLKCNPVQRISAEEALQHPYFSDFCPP
CDK5/p25, sequence (Q15078 99-307 partner limits assumed): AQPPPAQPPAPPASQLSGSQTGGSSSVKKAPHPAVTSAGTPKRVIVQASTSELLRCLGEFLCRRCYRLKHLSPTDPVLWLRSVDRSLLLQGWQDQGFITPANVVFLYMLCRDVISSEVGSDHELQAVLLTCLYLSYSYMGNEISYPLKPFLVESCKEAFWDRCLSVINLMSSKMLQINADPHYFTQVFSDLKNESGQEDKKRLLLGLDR
A further test has as its target DYRK1A (Rattus norvegicus, UniProt Q63470). Kind of test: DYRK1A kinase assay (myelin basic protein).
Where [2] appears, read: 15 μM ATP, cell '− (x)' = no inhibitory activity detected, x = highest concentration tested.

Each structure is given as a SMILES string. Where two headings read alike, the source gives them in different places.

Protocol for CDK5/p25: (§1) Blank values were subtracted and activities calculated as pmoles of phosphate incorporated during a 30 min. incubation. The activities were expressed in % of the maximal activity, i.e. in the absence of inhibitors. Controls were performed with appropriate dilutions of dimethylsulfoxide. Unless otherwise stated, the P81 phosphocellulose assay was used.
Its activity was assayed with histone H1 in buffer C as described for CDK1/cyclin B.
Protocol for DYRK1A: as §1
DYRK1A was expressed as a GST fusion protein in E. coli (vector kindly provided by Dr. W. Becker, Institute for Pharmacology and Toxicology, Aachen, Germany) and affinity purified on glutathione-agarose. […] ATP in a final volume of 30 μl. After 30 min incubation at 30°C, 25 μl aliquots of supernatant were treated as described above.

As to `COc1ccc2oc(=O)c3c(c(-c4ccc(O)c(OC)c4)c4c5cc(OC)c(O)cc5ccn43)c2c1` [Compound 10, lamellarin 4], the IC50 (commonly the concentration that gives 50% inhibition) was 2 µM against CDK1/cyclin B; 50 nM against GSK-3α/ß; 50 nM on PIM 1; 1.3 µM at CK1 (setting [2]); 790 nM in test [1]; 850 nM in the test on HeLa cells. Further, the IC50 against CDK5/p25 stood at 600 nM; on DYRK1A it was 80 nM.

`O=c1oc2cc(O)c(O)cc2c2c(-c3ccc(O)c(O)c3)c3c4cc(O)c(O)cc4ccn3c12` [Compound 4, lamellarin H]: the IC50 against CDK1/cyclin B is > 10 µM; on GSK-3α/ß, 9500 nM; at PIM 1 it was > 10000 nM; against CK1 (setting [2]), 5.3 µM; in test [1], 450 nM; in the test with HeLa cells, > 100000 nM. The IC50 against CDK5/p25 and against DYRK1A was > 10000 nM throughout.

As for `COc1cc(-c2c3n(c4c(=O)oc5cc(O)c(OC)cc5c24)CCc2c-3cc(OC)c(OC)c2O)ccc1O` [Compound 22, lamellarin K], the IC50 at CDK1/cyclin B is > 10 µM; against GSK-3α/ß, > 10000 nM; at PIM 1, 600 nM; on CK1 (setting [2]) it was 6 µM; in test [1], > 30000 nM; on CDK5/p25, > 10000 nM. Further, the concentration for half-maximal inhibition (IC50) at DYRK1A was > 10000 nM.

As for `COc1ccc(-c2c3n(c4c(=O)oc5cc(O)c(OC)cc5c24)CCc2cc(O)c(OC)cc2-3)cc1O` [Compound 7, lamellarin L], the IC50 against CDK1/cyclin B is 0.38 µM; at GSK-3α/ß, 41 nM; on PIM 1, 250 nM; on CK1 (setting [2]) it was > 10 µM; in test [1], 700 nM; on CDK5/p25, 100 nM. At DYRK1A, this compound returned an IC50 of 140 nM.

Regarding `COc1cc(-c2c3c4cc(OC)c(O)cc4oc(=O)c3n3ccc4cc(O)c(OC)cc4c23)ccc1O` [Compound 1, lamellarin D], the half-inhibitory concentration (IC50) at CDK1/cyclin B is 0.5 µM; against GSK-3α/ß it was 300 nM; on PIM 1, 100 nM; against CK1 it was 13 µM; in test [1], 19 nM; in the test on HeLa cells, 11 nM. For the same compound, the IC50 is 550 nM on CDK5/p25 and 450 nM against DYRK1A.

For `COc1cccc(-c2c3c4cc(OC)c(O)cc4oc(=O)c3n3ccc4cc(O)c(OC)cc4c23)c1` [Compound 13, lamellarin 7], the IC50 was 4.3 µM against CDK1/cyclin B; 2100 nM against GSK-3α/ß; > 10000 nM at PIM 1; > 10 µM against CK1 (setting [2]); 140 nM in test [1]; 70 nM in the test with HeLa cells. For the same compound, the concentration for half-maximal inhibition (IC50) is 2100 nM against CDK5/p25 and > 10000 nM on DYRK1A.

As for `COc1cc2c(cc1O)oc(=O)c1c2c(-c2ccc(OC)c(OC)c2)c2c3cc(OC)c(OC)cc3ccn21` [Compound 11, lamellarin 5], the half-inhibitory concentration (IC50) at CDK1/cyclin B is > 10 µM; on GSK-3α/ß, > 10000 nM; at PIM 1, 2000 nM; on CK1 (setting [2]), > 10 µM; in test [1], 8000 nM; with HeLa cells, 2500 nM. The IC50 against CDK5/p25 and at DYRK1A was > 10000 nM in each case.

Turning to `COc1cc(-c2c3n(c4c(=O)oc5cc(O)c(OC)cc5c24)CCc2cc(O)c(OC)cc2-3)ccc1O` [Compound 3, di-H-lamellarin D], the IC50 worked out at 1.85 µM against CDK1/cyclin B; 900 nM on GSK-3α/ß; 200 nM at PIM 1; 5.9 µM at CK1 (setting [2]); 410 nM in test [1]; 110 nM against CDK5/p25. On DYRK1A, this compound yielded an IC50 of 500 nM.

On to `COc1ccc(-c2c3c4ccccc4oc(=O)c3n3ccc4cc(OC)c(OC)cc4c23)cc1OC` [Compound 16, lamellarin 11], for which the IC50 against CDK1/cyclin B is > 10 µM; on GSK-3α/ß it was > 10000 nM; at PIM 1 it was > 10000 nM; on CK1 (setting [2]), > 10 µM; in test [1], > 10000 nM; with HeLa cells, 5700 nM. In addition, the IC50 on CDK5/p25 and against DYRK1A was > 10000 nM in each case.

In the case of `COc1cc(-c2c3c4cc(OC)c(O)cc4oc(=O)c3n3ccc4cc(OC)c(OC)cc4c23)ccc1O` [Compound 2, lamellarin α], the 50% inhibitory concentration (IC50) against CDK1/cyclin B is 8 µM; on GSK-3α/ß, 1400 nM; at PIM 1, 590 nM; at CK1 (setting [2]), 7.9 µM; in test [1], > 10000 nM; at CDK5/p25, > 10000 nM. This compound also showed a concentration for half-maximal inhibition (IC50) against DYRK1A of 5000 nM.

In the case of `O=c1oc2ccccc2c2c(-c3ccc(O)c(O)c3)c3c4cc(O)c(O)cc4ccn3c12` [Compound 15, lamellarin 9], the 50% inhibitory concentration (IC50) was > 10 µM against CDK1/cyclin B; > 10000 nM at GSK-3α/ß; > 10000 nM on PIM 1; > 10 µM against CK1 (setting [2]); > 10000 nM in test [1]; 1100 nM in the test with HeLa cells. Besides, the IC50 against CDK5/p25 and on DYRK1A was > 10000 nM throughout.

As to `O=c1oc2cc(O)c(O)cc2c2c(-c3ccc(O)c(O)c3)c3n(c12)CCc1cc(O)c(O)cc1-3` [Compound 5, di-H-lamellarin H], the IC50 at CDK1/cyclin B was > 10 µM; on GSK-3α/ß, 670 nM; on PIM 1, > 10000 nM; against CK1 (setting [2]), 5.2 µM; in test [1], 2550 nM; at CDK5/p25, > 10000 nM. In addition, the IC50 against DYRK1A is > 10000 nM.

On to `COc1cc2c(cc1O)oc(=O)c1c2c(-c2ccc(O)cc2)c2c3cc(OC)c(O)cc3ccn21` [Compound 12, lamellarin 6], for which the concentration for half-maximal inhibition (IC50) is 0.1 µM on CDK1/cyclin B; 130 nM on GSK-3α/ß; 330 nM at PIM 1; 0.8 µM at CK1 (setting [2]); 110 nM in test [1]; 40 nM in the test with HeLa cells. For the same compound, the IC50 on CDK5/p25 was 30 nM; against DYRK1A it was 90 nM.

On to `COc1ccc(-c2c3c4cc5c(cc4oc(=O)c3n3ccc4cc(OC)c(OC)cc4c23)OCO5)cc1OC` [Compound 17, lamellarin 12], for which the IC50 is > 10 µM at CDK1/cyclin B; > 10000 nM at GSK-3α/ß; > 10000 nM at PIM 1; > 10 µM at CK1 (setting [2]); > 10000 nM in test [1]; > 100000 nM in the test with HeLa cells. For the same compound, the IC50 against CDK5/p25 and at DYRK1A was > 10000 nM each time.

`COc1cc(-c2c3c4ccccc4oc(=O)c3n3ccc4cc(O)c(OC)cc4c23)ccc1O` [Compound 14, lamellarin 8]: the IC50 is 5 µM against CDK1/cyclin B; 2200 nM against GSK-3α/ß; 700 nM on PIM 1; > 10 µM on CK1 (setting [2]); 2650 nM in test [1]; 4000 nM in the test with HeLa cells. Further, the IC50 turned out to be 900 nM against CDK5/p25 and 1000 nM against DYRK1A.

Take `COc1cc(-c2c3c4ccc(O)cc4oc(=O)c3n3ccc4cc(O)c(OC)cc4c23)ccc1O` [Compound 9, lamellarin 3]: the IC50 against CDK1/cyclin B is 0.53 µM; at GSK-3α/ß it was 580 nM; at PIM 1, 150 nM; on CK1 (setting [2]), 0.41 µM; in test [1], 56 nM; in the test on HeLa cells it was 40 nM. The IC50 was found to be 600 nM at CDK5/p25 and 60 nM at DYRK1A.

Source of the values: paper PMC2630805, “Anticancer Alkaloid Lamellarins Inhibit Protein Kinases” (Marine Drugs, 2008).
